Changes are numbered by the printed parent chain. Where two headings read alike, the source gives them in different places.
Experiments:
Type in all cases: cell-based
[1] = target: T1, NaChBac (voltage-gated sodium channel from Bacillus halodurans) (Halalkalibacterium halodurans, UniProt Q9KCR8)
T1 sequence (Q9KCR8 1-274): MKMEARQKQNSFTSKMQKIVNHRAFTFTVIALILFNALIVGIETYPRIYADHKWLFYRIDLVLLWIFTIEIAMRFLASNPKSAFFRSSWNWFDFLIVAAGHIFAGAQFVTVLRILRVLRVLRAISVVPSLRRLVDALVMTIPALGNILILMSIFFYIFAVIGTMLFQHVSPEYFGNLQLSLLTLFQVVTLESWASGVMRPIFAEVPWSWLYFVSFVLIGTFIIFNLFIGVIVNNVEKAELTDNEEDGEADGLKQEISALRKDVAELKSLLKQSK

[2] = target: T2, NaChBac (voltage-gated sodium channel from Bacillus halodurans) (Halalkalibacterium halodurans, UniProt Q9KCR8, T220A); experiment: patch clamp in HEK-293 cells, peak current concentration response
T2 sequence (Q9KCR8 1-274 T220A): T1 sequence (Q9KCR8 1-274) with T220A

[3] = target: T1, NaChBac (voltage-gated sodium channel from Bacillus halodurans); remark: listed apart in the source

For `CCOC(=O)c1ccc(N)cc1` [benzocaine], the IC50 [1] was 650 µM.

`CCN(CC)CC(=O)Nc1c(C)cccc1C` [lidocaine] gave an IC50 [2] of 765 ± 76.3 µM and an IC50 [3] of ~260 µM.

Compound `COc1ccccc1OCC(O)CN1CCN(CC(=O)Nc2c(C)cccc2C)CC1` (stereo not shown) [ranolazine] has an IC50 [3] of ~60 µM.
